Among the test systems are A498; A549; ACHN; BT-549; CAKI-1; CCRF-CEM; HL-60; HT-29; Hs-578T; KM12; LOX IMVI; M14; MCF7; MDA-MB-435; MOLT-4; NCI-H460; RPMI-8226; SK-MEL-5; SNB-19; TK-10.
Holding throughout (assay): DTP human tumour cell line panel, 48 h

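A five-concentration, 48-hour dose response in 96-well plates underlies each endpoint, interpolated linearly between surrounding concentrations. At the GI50, growth is halved.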 Active and inactive are the calls of the source. Rule as the data show it: active = GI50 up to about 1.1 µM and inactive = higher. Where only a bound is given, the exact number is not on record here.

With `Nc1nc(N)c2cc(Sc3ccc4ccccc4c3)ccc2n1`, the GI50 in the assay with A498 was 11.5 µM (inactive); with A549 it was 0.343 µM (active); in the assay on ACHN, 0.509 µM (active); in the assay on BT-549, 3.61 µM (inactive); in the assay with CAKI-1 it was 4.52 µM (inactive); with CCRF-CEM it was 0.705 µM (active). Further, the GI50 was 1.38 µM (inactive) in the assay on HL-60; 1.79 µM (inactive) with HT-29; 11.9 µM (inactive) in the assay with Hs-578T; 1.98 µM (inactive) with KM12; 0.627 µM (active) in the assay on LOX IMVI; 1.23 µM (inactive) with M14. Besides, the GI50 in the assay on MCF7 was 1.3 µM (inactive); in the assay with MDA-MB-435 it was 0.687 µM (active); in the assay with MOLT-4 it was 2.8 µM (inactive); in the assay with NCI-H460 it was 0.682 µM (active); in the assay with RPMI-8226, 2.14 µM (inactive); with SK-MEL-5 it was 0.845 µM (active). In addition, the GI50 in the assay with SNB-19 is 3.48 µM (inactive); in the assay on TK-10, 3.1 µM (inactive).

Consider `CSc1ncnc2c1ncn2CC(=O)C1CCC2C3CCC4=CC(=O)CCC4(C)C3CCC12C` (stereo not given), for which the GI50 with A498 was 5.13 µM (inactive); with A549, 6.81 µM (inactive); in the assay on ACHN it was 4.97 µM (inactive); in the assay with BT-549, 2.58 µM (inactive); in the assay on CAKI-1 it was 10 µM (inactive); with CCRF-CEM it was 0.729 µM (active). The GI50 is 0.28 µM (active) in the assay on HL-60; 3.76 µM (inactive) with HT-29; 19.1 µM (inactive) with Hs-578T; 2.84 µM (inactive) in the assay on KM12; 4.38 µM (inactive) in the assay with LOX IMVI; 2.4 µM (inactive) with M14. Besides, the GI50 in the assay on MCF7 is 3.08 µM (inactive); in the assay on MDA-MB-435, 2.96 µM (inactive); in the assay on MOLT-4, 1.69 µM (inactive); in the assay with NCI-H460 it was 4.35 µM (inactive); in the assay with RPMI-8226, 1.45 µM (inactive); in the assay with SK-MEL-5, 2.04 µM (inactive). The GI50 in the assay on SNB-19 is 19.2 µM (inactive); with TK-10 it was 4.46 µM (inactive).

Turning to `COc1ccc(-c2cc(-c3ccccc3)[nH]c(=S)c2C#N)cc1`, the GI50 in the assay with A498 is 15.3 µM (inactive); with A549 it was 18.8 µM (inactive); in the assay on ACHN it was 33 µM (inactive); in the assay on BT-549, 39.6 µM (inactive); in the assay with CAKI-1, 61 µM (inactive); with CCRF-CEM, 17.3 µM (inactive). Further, the GI50 in the assay with HL-60 was 46.8 µM (inactive); in the assay on HT-29 it was 36.1 µM (inactive); in the assay with Hs-578T, 39.2 µM (inactive); with KM12 it was 45.4 µM (inactive); in the assay with LOX IMVI, 20.7 µM (inactive); with M14, 25.4 µM (inactive). Besides, the GI50 with MCF7 is 30.7 µM (inactive); in the assay on MDA-MB-435 it was 20.1 µM (inactive); in the assay with MOLT-4 it was 17.4 µM (inactive); in the assay with NCI-H460 it was 25.5 µM (inactive); in the assay with RPMI-8226 it was 20.7 µM (inactive); with SK-MEL-5, 16 µM (inactive). Besides, the results for the GI50 with SNB-19 and in the assay on TK-10 were 40.4 µM (inactive) and 76.7 µM (inactive), respectively.

Regarding `Cc1ccc2c(c1)C(=O)C(C1OC(=O)c3ccccc31)C2` (stereo not given), the GI50 was > 100 µM (inactive) in the assay with A498; > 100 µM (inactive) in the assay with A549; 83.8 µM (inactive) in the assay on ACHN; > 100 µM (inactive) in the assay on BT-549; > 100 µM (inactive) with CAKI-1; 89.7 µM (inactive) in the assay on CCRF-CEM. In addition, the GI50 is 64.7 µM (inactive) with HL-60; 29.2 µM (inactive) in the assay with HT-29; 69.5 µM (inactive) with Hs-578T; > 100 µM (inactive) in the assay with KM12; 39.9 µM (inactive) in the assay with LOX IMVI; > 100 µM (inactive) with M14. Moreover, the GI50 in the assay on MCF7 was 36.1 µM (inactive); in the assay on MDA-MB-435 it was > 100 µM (inactive); in the assay with MOLT-4, 92.5 µM (inactive); in the assay on NCI-H460, > 100 µM (inactive); in the assay with RPMI-8226, 45.8 µM (inactive); with SK-MEL-5 it was 65.3 µM (inactive). Moreover, the values for the GI50 with SNB-19 and in the assay with TK-10 were 87.3 µM (inactive) and 38.5 µM (inactive), respectively.

Consider `COc1ccccc1/C=C1\CCC(CN2CCOCC2)C1=O` (stereo not given), for which the GI50 with A498 is 18.2 µM (inactive); in the assay with A549 it was 21.9 µM (inactive); in the assay on ACHN it was 16.1 µM (inactive); with BT-549, 12.6 µM (inactive); in the assay on CAKI-1 it was 17.3 µM (inactive); in the assay with CCRF-CEM it was 2.56 µM (inactive). Besides, the GI50 in the assay with HL-60 is 2.12 µM (inactive); with HT-29, 11 µM (inactive); in the assay with Hs-578T, 10.8 µM (inactive); in the assay with KM12, 3.71 µM (inactive); in the assay with LOX IMVI, 6.52 µM (inactive); in the assay with M14, 6.15 µM (inactive). Also, the GI50 was 5.14 µM (inactive) in the assay with MCF7; 7.13 µM (inactive) in the assay on MDA-MB-435; 2.32 µM (inactive) in the assay with MOLT-4; 18.2 µM (inactive) in the assay with NCI-H460; 1.32 µM (inactive) in the assay with RPMI-8226; 15 µM (inactive) in the assay with SK-MEL-5. The GI50 was 9.55 µM (inactive) with SNB-19 and 3.49 µM (inactive) with TK-10.

Take `COC(=O)c1ccccc1/C=C1\Cc2c(ccc3c2CCC3)C1=O`: the GI50 with A498, in the assay on A549, with ACHN, with BT-549, in the assay with CAKI-1 and in the assay on CCRF-CEM was > 100 µM (inactive) throughout. For the same compound, the GI50 in the assay on HL-60, in the assay on HT-29, in the assay on Hs-578T, with KM12, with LOX IMVI and with M14 was > 100 µM (inactive) throughout. The GI50 in the assay with MCF7, with MDA-MB-435, in the assay with MOLT-4, with NCI-H460, in the assay with RPMI-8226 and in the assay on SK-MEL-5 was > 100 µM (inactive) in each case. Also, the GI50 with SNB-19 and with TK-10 was > 100 µM (inactive) each time.

Regarding `CN(C)/C=C/c1c2c(nc3ccccc13)C(=O)c1ccccc1C2=O`, the GI50 was 3.91 µM (inactive) with A498; 2.33 µM (inactive) in the assay with A549; 0.598 µM (active) in the assay with ACHN; 1.77 µM (inactive) with BT-549; 2.06 µM (inactive) in the assay with CAKI-1; 0.78 µM (active) in the assay with CCRF-CEM. In addition, the 50% growth inhibitory concentration (GI50) in the assay on HL-60 was 0.366 µM (active); in the assay with HT-29, 1.54 µM (inactive); with Hs-578T, 1.04 µM (active); with KM12, 1.34 µM (inactive); with LOX IMVI it was 0.067 µM (active); with M14, 0.586 µM (active). For the same compound, the concentration for 50% growth inhibition (GI50) is 0.7 µM (active) in the assay with MCF7; 0.357 µM (active) in the assay on MDA-MB-435; 1.03 µM (active) with MOLT-4; 0.262 µM (active) in the assay on NCI-H460; 0.0989 µM (active) in the assay on RPMI-8226; 0.175 µM (active) in the assay on SK-MEL-5. For the same compound, the GI50 in the assay with SNB-19 was 1.83 µM (inactive); with TK-10, 2.13 µM (inactive).

Source of the values: ChEMBL document CHEMBL1201862, “PubChem BioAssay data set” (2004).
